# Target: T1, phospho p-38 alpha kinase (Homo sapiens, UniProt Q16539)
# T1 construct: purchased Panvera
# Experiment: P-38 alpha kinase assay (spectrophotometric, pyruvate kinase/lactate dehydrogenase coupled)
# Format: biochemical
# Settings: Table 3; rates from […] to 2 h time frame
# T1 sequence (Q16539 whole entry): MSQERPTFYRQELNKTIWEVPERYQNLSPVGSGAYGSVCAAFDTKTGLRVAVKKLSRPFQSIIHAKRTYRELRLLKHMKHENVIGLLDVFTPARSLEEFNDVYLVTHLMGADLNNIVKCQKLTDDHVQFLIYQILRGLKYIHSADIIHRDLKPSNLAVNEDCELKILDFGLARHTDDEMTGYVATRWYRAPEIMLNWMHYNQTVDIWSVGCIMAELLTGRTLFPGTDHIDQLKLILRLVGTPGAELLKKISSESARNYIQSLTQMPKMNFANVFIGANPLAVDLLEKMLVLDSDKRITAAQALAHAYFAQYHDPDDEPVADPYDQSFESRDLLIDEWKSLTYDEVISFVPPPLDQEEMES
row,Compound,IC50 [µM]
1,"CC(C)(C)c1cc(NC(=O)Nc2ccc(Cl)cc2)n(-c2cccc(CN3C(=O)NC(=O)C3=O)c2)n1 [Example 481, 1-{3-t-butyl-2-{3-[(2,4,5-trioxoimidazolidin-1-yl)methyl]phenyl}-1H-pyrazol-3-yl}-3-(4-chlorophenyl)urea]",0.23
2,"CC(C)(C)c1cc(NC(=O)Nc2cccc3ccccc23)n(-c2cccc(CN3C(=O)C(=O)NS3(=O)=O)c2)n1 [Example 482, 1-{5-t-butyl-2-[3-(1,1,3,4-tetraoxo-1λ^6-[1,2,5]thiadiazolidin-2-ylmethyl)phenyl]-2H-pyrazol-3-yl}-3-(naphthalen-1-yl)urea]",0.084
3,"CC(C)(C)c1cc(NC(=O)Nc2ccc(Cl)cc2)n(-c2cccc(CN3C(=O)C(=O)NS3(=O)=O)c2)n1 [Example 483, 1-{5-t-butyl-2-[3-(1,1,3,4-tetraoxo-1λ^6-[1,2,5]thiadiazolidin-2-ylmethyl)phenyl]-2H-pyrazol-3-yl}-3-(4-chlorophenyl)urea]",0.27
4,"CC(C)(C)c1cc(NC(=O)Nc2cccc3ccccc23)n(-c2cccc(CNC(=O)N3CCOCC3)c2)n1 [Example 485, 1-(3-t-butyl-1-{3-[(morpholine-4-carboxamido)methyl]phenyl}-1H-pyrazol-5-yl)-3-(naphthalen-1-yl)urea]",0.05
5,"CC(C)(C)c1cc(NC(=O)Nc2cccc3ccccc23)n(-c2cccc(CNC(=O)N3CCCC3)c2)n1 [Example 486, 1-(3-t-butyl-1-{3-[(pyrrolidine-1-carboxamido)methyl]phenyl}-1H-pyrazol-5-yl)-3-(naphthalen-1-yl)urea]",0.057
6,"CN(C)C(=O)NCc1cccc(-n2nc(C(C)(C)C)cc2NC(=O)Nc2cccc3ccccc23)c1 [Example 487, 1-{3-t-butyl-1-[3-(3,3-dimethylureidomethyl)phenyl]-1H-pyrazol-5-yl}-3-(naphthalen-1-yl)urea]",0.038
7,"CC(C)(C)c1cc(NC(=O)Nc2ccc(Cl)cc2)n(-c2cccc(CNC(=O)N3CCCCC3)c2)n1 [Example 488, 1-(3-t-butyl-1-{3-{(piperidine-1-carboxamido)methyl]phenyl}-1H-pyrazol-5-yl)-3-(4-chlorophenyl)urea]",0.54
8,"CC(C)(C)c1cc(NC(=O)Nc2ccc(Cl)cc2)n(-c2cccc(CNC(=O)N3CCOCC3)c2)n1 [Example 489, 1-(3-t-butyl-1-{3-[(morpholine-4-carboxamido)methyl]phenyl}-1H-pyrazol-5-yl)-3-(4-chlorophenyl)urea]",0.52
9,"CC(C)(C)c1cc(NC(=O)Nc2ccc(Cl)cc2)n(-c2cccc(CNC(=O)N3CCCC3)c2)n1 [Example 490, 1-(3-t-butyl-1-{3-[(pyrrolidine-1-carboxamido)methyl]phenyl}-1H-pyrazol-5-yl)-3-(4-chlorophenyl)urea]",0.34
10,"CN(C)C(=O)NCc1cccc(-n2nc(C(C)(C)C)cc2NC(=O)Nc2ccc(Cl)cc2)c1 [Example 491, 1-{3-t-butyl-1-[3-(3,3-dimethylureidomethyl)phenyl]-1H-pyrazol-5-yl}-3-(4-chlorophenyl)urea]",0.34
11,"CN1CCN(C(=O)NCc2cccc(-n3nc(C(C)(C)C)cc3NC(=O)Nc3cccc4ccccc34)c2)CC1 [Example 492, 1-(3-t-butyl-1-{3-[(1-methylpiperazine-4-carboxamido)methyl]phenyl)-1H-pyrazol-5-yl)-3-(naphthalen-1-yl)urea]",0.04
12,"CC(C)(C)c1cc(NC(=O)Nc2ccc(Cl)cc2)n(-c2cccc(CN3C(=O)C(=O)N(c4ccccc4)C3=O)c2)n1 [Example 494, 1-(3-t-butyl-1-(3-[(2,4,5-trioxo-3-phenylimidazolidin-1-yl)methyl]phenyl}-1H-pyrazol-5-yl)-3-(4-chlorophenyl)urea]",0.67
13,"CC(C)(C)c1cc(NC(=O)Nc2ccc(Cl)cc2)n(-c2cccc(Cn3c(=O)[nH]n(-c4ccccc4)c3=O)c2)n1 [Example 495, 1-(3-t-butyl-1-{3-[(3,5-dioxo-1-phenyl-1,2,4-triazolidin-4-yl)methyl]phenyl}-1H-pyrazol-5-yl)-3-(4-chlorophenyl)urea]",0.25
14,"CC(C)(C)C1=NC(c2ccc(CC(=O)O)cc2)C(NC(=O)Nc2ccc(Cl)cc2)=C1 (stereo not shown) [Example 506, 2-(4-{5-t-butyl-3-[3-(4-chlorophenyl)ureido]-2H-pyrrol-2-yl}-phenyl)acetic acid]",0.042
15,"CC(C)(C)c1cc(NC(=O)Nc2cccc(Cl)c2Cl)n(-c2ccc3c(c2)CNCC3)n1 [Example 508, 1-[3-t-butyl-(1,2,3,4-tetrahydroisoquinolin-7-yl)-1H-pyrazol-5-yl]-3-(2,3-dichlorophenyl)urea]",0.052
16,"CC(C)(C)c1cc(NC(=O)Nc2cccc3ccccc23)n(-c2ccc3c(c2)CNCC3)n1 [Example 509, 1-[3-t-butyl-1-(1,2,3,4-tetrahydroisoquinolin-7-yl)-1H-pyrazol-5-yl]-3-(naphthalen-1-yl)urea]",0.5
17,"CC(C)(C)c1cc(NC(=O)Nc2ccc(Cl)cc2)n(-c2ccc3c(c2)CNCC3)n1 [Example 510, 1-[3-t-butyl-1-(1,2,3,4-tetrahydroisoquinolin-7-yl)-1H-pyrazol-5-yl]-3-(4-chlorophenyl)urea]",0.47
18,"Cn1[nH]c(=O)n(Cc2cccc(-n3nc(C(C)(C)C)cc3NC(=O)Nc3cccc(Cl)c3Cl)c2)c1=O [Example 511, 1-{5-t-butyl-2-[3-(1-methyl-3,5-dioxo-[1,2,4]triazolidin-4-ylmethyl)-phenyl]-2H-pyrazol-3-yl}-3-(2,3-dichloro-phenyl)-urea]",0.024
19,"CC(=O)N1CCc2ccc(-n3nc(C(C)(C)C)cc3NC(=O)Nc3cccc(Cl)c3Cl)cc2C1 [Example 512, 1-[1-(2-acetyl-1,2,3,4-tetrahydroisoquinolin-7-yl)-3-t-butyl-1H-pyrazol-5-yl]-3-(2,3-dichlorophenyl)urea]",0.032
20,"CC(C)(C)c1cc(NC(=O)Nc2ccc3c(c2)OCO3)n(-c2ccc3c(c2)CNCC3)n1 [Example 513, 1-benzo[d][1,3]dioxol-5-yl-3-[3-t-butyl-1-(1,2,3,4-tetrahydroisoquinolin-7-yl)-1H-pyrazol-5-yl]urea]",0.41
21,"CC(C)c1cc(NC(=O)Nc2cccc3ccccc23)n(-c2ccc(C(O)C(F)(F)F)cc2)n1 (stereo not shown) [Example 514, 1-(1-(4-(2,2,2-trifluoro-1-hydroxyethyl)phenyl)-3-isopropyl-1H-pyrazol-5-yl)-3-(naphthalen-1-yl)urea]",0.57
22,"CC(C)(C)c1cc(NC(=O)Nc2ccc(Cl)cc2)n(-c2cccc(C(O)C(F)(F)F)c2)n1 (stereo not shown) [Example 516, 1-(3-t-butyl-1-(3-(2,2,2-trifluoro-1-hydroxyethyl)phenyl)-1H-pyrazol-5-yl)-3-(4-chlorophenyl)urea]",0.45
23,"COC(=O)COc1ccc(-n2nc(C(C)(C)C)cc2NC(=O)Nc2cccc3ccccc23)cc1 [Example 519, 1-(3-t-butyl-1-(4-(carbomethoxymethyl)oxyphenyl)-1H-pyrazol-5-yl)-3-(naphthalen-1-yl)urea]",0.052
24,"CC(C)(C)c1cc(NC(=O)Nc2cccc3ccccc23)n(-c2ccc(OCC(=O)O)cc2)n1 [Example 520, 1-(3-t-butyl-1-(4-(carboxymethyl)oxyphenyl)-1H-pyrazol-5-yl)-3-(naphthalen-1-yl)urea]",0.0092
25,"CC(C)(C)c1cc(NC(=O)Nc2ccccc2)n(-c2ccc(O)cc2)n1 [Example 522, 1-(3-t-butyl-1-(4-hydroxyphenyl)-1H-pyrazol-5-yl)-3-phenylurea]",0.78

# Same assay, conditions: read-out: % Inhibition @ concentration, Table 3; at 0.1 uM
row,Compound,inhibition at 0.1 µM [%]
1,"CC(C)(C)c1cc(NC(=O)Nc2cccc(Cl)c2Cl)n(-c2cccc(Cn3c(=O)[nH]n(-c4ccccc4)c3=O)c2)n1 [Example 499, 1-(3-t-butyl-1-{3-[(3,5-dioxo-1-phenyl-1,2,4-triazolidin-4-yl)methyl]phenyl}-1H-pyrazol-5-yl)-3-(2,3-dichlorophenyl)urea]",78
2,"CC(C)(C)c1cc(NC(=O)Nc2ccc(Cl)cc2)n(-c2ccc(OCC(=O)O)cc2)n1 [Example 526, 1-(3-t-butyl-1-(4-(carboxymethyl)oxyphenyl)-1H-pyrazol-5-yl)-3-(4-chlorophenyl-1-yl)urea]",25

# Same assay, conditions: read-out: % Inhibition @ concentration, Table 3; at 1 uM
row,Compound,inhibition at 1 µM [%]
1,"CN1CCN(C(=O)NCc2cccc(-n3nc(C(C)(C)C)cc3NC(=O)Nc3ccc(Cl)cc3)c2)CC1 [Example 493, 1-(3-t-butyl-1-{3-[(1-methylpiperazine-4-carboxamido)methyl]phenyl}-1H-pyrazol-5-yl)-3-(4-chlorophenyl)urea]",36
2,"CC(C)(C)c1cc(NC(=O)Nc2ccc(F)cc2)n(-c2cccc(Cn3c(=O)[nH]n(-c4ccccc4)c3=O)c2)n1 [Example 498, 1-(3-t-butyl-1-{3-[(3,5-dioxo-1-phenyl-1,2,4-triazolidin-4-yl)methyl]phenyl}-1H-pyrazol-5-yl)-3-(4-fluorophenyl)urea]",25
3,"CC(C)(C)c1cc(NC(=O)Nc2cccc(Cl)c2Cl)n(-c2cccc(Cn3c(=O)[nH]n(-c4ccccc4)c3=O)c2)n1 [Example 499, 1-(3-t-butyl-1-{3-[(3,5-dioxo-1-phenyl-1,2,4-triazolidin-4-yl)methyl]phenyl}-1H-pyrazol-5-yl)-3-(2,3-dichlorophenyl)urea]",95
4,CCOC(=O)COc1ccc(-n2nc(C(C)(C)C)cc2NC(=O)Nc2ccc(Cl)cc2)cc1 [Example 525],11
5,"CC(C)(C)c1cc(NC(=O)Nc2ccc(Cl)cc2)n(-c2ccc(OCC(=O)O)cc2)n1 [Example 526, 1-(3-t-butyl-1-(4-(carboxymethyl)oxyphenyl)-1H-pyrazol-5-yl)-3-(4-chlorophenyl-1-yl)urea]",70
6,"CC(C)(C)c1cc(NC(=O)Nc2cccc3ccccc23)n(-c2cccc(OCCCN3CCS(=O)(=O)CC3)c2)n1 [Example 528, 1-(5-t-butyl-2-{3-[3-(1,1-dioxo-16-thiomorpholin-4-yl)-propoxy]-phenyl}-2H-pyrazol-3-yl)-3-naphthalen-1-yl-urea]",35

# Same assay, conditions: read-out: % Inhibition @ concentration, Table 3; at 10 uM
row,Compound,inhibition at 10 µM [%]
1,"CN1CCN(C(=O)NCc2cccc(-n3nc(C(C)(C)C)cc3NC(=O)Nc3ccc(Cl)cc3)c2)CC1 [Example 493, 1-(3-t-butyl-1-{3-[(1-methylpiperazine-4-carboxamido)methyl]phenyl}-1H-pyrazol-5-yl)-3-(4-chlorophenyl)urea]",73
2,"CCOC(=O)CCc1cccc(-n2nc(C(F)(F)F)cc2NC(=O)Nc2ccc(Cl)cc2)c1 [Example 529, 3-(3-{5-[3-(4-chloro-phenyl)-ureido]-3-trifluoromethyl-pyrazol-1-yl}-phenyl)-propionic acid ethyl ester]",40
3,"O=C(O)CCc1cccc(-n2nc(C(F)(F)F)cc2NC(=O)Nc2ccc(Cl)cc2)c1 [Example 530, 3-(3-(5-(3-(4-chlorophenyl)ureido)-3-(trifluoromethyl)-1H-pyrazol-1-yl)phenyl)propanoic acid]",83
4,"CCOC(=O)CCc1cccc(-n2nc(C)cc2NC(=O)Nc2ccc(Cl)cc2)c1 [Example 531, 3-(3-{5-[3-(4-chloro-phenyl)-ureido]-3-methyl-pyrazol-1-yl}-phenyl)-propionic acid ethyl ester]",14

# Source: patent US20070191336A1 (priority 2003, published 2007)
